Patent publication US12440535B2, “IL-4 derived peptide fragments for use in the treatment of diabetic nephropathy” (SERODUS APS, priority 2022, dated 2025)
Entries after “also recorded” stand apart in the source; their conditions may differ. Where no end group is shown, it is not given here. [ ]: non-standard residue; d: D form. βAla = NCCC(=O)O

How the values were obtained:
type I IL-4R = biological target: T1, type I IL-4R (Homo sapiens, UniProt P24394); settings: Klementiv 2013; cited from earlier work
T1 sequence (P24394 26-825): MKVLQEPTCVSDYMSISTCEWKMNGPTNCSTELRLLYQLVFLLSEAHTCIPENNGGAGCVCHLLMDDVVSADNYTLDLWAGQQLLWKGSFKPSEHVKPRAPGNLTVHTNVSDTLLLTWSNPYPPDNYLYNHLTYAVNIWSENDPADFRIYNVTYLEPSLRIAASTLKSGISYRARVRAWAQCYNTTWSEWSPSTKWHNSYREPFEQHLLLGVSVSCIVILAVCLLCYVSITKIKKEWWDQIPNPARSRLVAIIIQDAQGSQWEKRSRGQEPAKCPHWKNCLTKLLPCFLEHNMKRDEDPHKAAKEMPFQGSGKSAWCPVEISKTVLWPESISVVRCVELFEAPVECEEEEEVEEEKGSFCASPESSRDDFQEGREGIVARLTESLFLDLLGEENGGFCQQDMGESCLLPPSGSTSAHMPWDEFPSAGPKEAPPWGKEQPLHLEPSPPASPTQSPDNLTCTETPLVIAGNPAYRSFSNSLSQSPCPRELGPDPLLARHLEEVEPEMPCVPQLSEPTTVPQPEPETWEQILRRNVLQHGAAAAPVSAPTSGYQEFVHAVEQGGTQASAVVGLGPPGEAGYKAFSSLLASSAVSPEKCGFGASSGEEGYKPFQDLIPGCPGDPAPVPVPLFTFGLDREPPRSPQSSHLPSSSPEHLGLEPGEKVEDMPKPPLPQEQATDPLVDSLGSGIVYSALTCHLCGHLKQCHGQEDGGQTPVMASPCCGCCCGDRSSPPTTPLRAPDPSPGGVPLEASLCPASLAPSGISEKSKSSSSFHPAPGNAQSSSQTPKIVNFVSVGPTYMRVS
T1 sequence (P31785 23-369 partner): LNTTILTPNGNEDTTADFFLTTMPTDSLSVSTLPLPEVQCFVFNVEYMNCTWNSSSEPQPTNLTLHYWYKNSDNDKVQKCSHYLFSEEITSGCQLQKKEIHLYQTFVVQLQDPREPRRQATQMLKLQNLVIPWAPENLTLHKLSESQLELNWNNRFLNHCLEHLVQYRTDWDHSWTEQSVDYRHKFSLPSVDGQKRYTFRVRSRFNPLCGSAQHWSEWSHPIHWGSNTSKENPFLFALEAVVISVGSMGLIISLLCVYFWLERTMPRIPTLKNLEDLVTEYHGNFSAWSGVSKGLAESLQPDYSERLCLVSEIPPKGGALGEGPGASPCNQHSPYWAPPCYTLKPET

type II IL-4R = biological target: T2, type II IL-4R (Homo sapiens, UniProt P24394); settings: Klementiv 2013; cited from earlier work
T2 sequence (P24394 26-825): T1 sequence (P24394 26-825)

IL-4 receptors = settings: cited from earlier work
macrophages = settings: cited from earlier work
ReninAAV UNx db/db mice = ReninAAV UNx db/db mice model of diabetic nephropathy, urine biomarkers; type: in vivo; settings: 10 mg/kg subcutaneously once daily, compared to vehicle, spot urine at termination day 77
Method: 28 female mice (BKS.Cg-Dock7m+/+Lepradb/db BLKS, 5 weeks of age) were transferred to the Gubra Research animal unit. Throughout the habituation and study period, the animals were housed in a light-, temperature-, and humidity-controlled room with free access to food and water. All animal experiments were conducted in accordance with Gubra's bioethical guidelines, which are fully compliant with internationally accepted principles for the care and use of laboratory animals. The animals were group-housed until uni-nephrectomies, then single-housed.
The animals were terminated on day 77; blood was taken for later analysis, body weight was recorded, and spot urine was collected.
Compound A was provided by Phlogo ApS, Copenhagen, Denmark (10 mg/ml miliQ water diluted to the dose formulations). Compound A was provided as a dimeric peptide comprising two copies of the sequence AQFHRHKQLIRFLKRA (SEQ ID NO: 1). […]
Urine samples were stored at minus 80° C. until analysis. […] Urine albumin was measured using a commercial ELISA kit (Bethyl Laboratories, Inc.), according to the manufacturer's instructions, and urine creatinine was measured using a commercial kit (Roche Diagnostics) on the Cobas c 501 autoanalyzer, according to the manufacturer's instructions. Urinary KIM-1 was measured using a commercial ELISA kit (R&D Systems) according to the manufacturer's instructions.

Substance	Mode of action on type I IL-4R (type I IL-4R)	Mode of action on type II IL-4R (type II IL-4R)	Binding to the IL-4 receptors (IL-4 receptors)	Macrophage activation (macrophages)	ACR (urinary albumin corrected for creatinine) (ReninAAV UNx db/db mice)	KIM-1/CR (urinary KIM-1 corrected for creatinine) (ReninAAV UNx db/db mice)
AQFHRHKQLIRFLKRA [SEQ ID NO:1, IL-4 derived peptide, variant of AA71-AA86 of IL-4 with two amino acid substitutions]	high affinity partial agonist	antagonist	capable of binding to the IL-4 receptors	inhibiting macrophage activation	–	–
Compound A: dimer of SEQ ID NO:1 (AQFHRHKQLIRFLKRA), two copies connected via their C-terminal through a lysine-beta-alanine linker (AQFHRHKQLIRFLKRAK[βAla]; also: dimer of two copies joined at C-termini via lysine-beta-alanine linker, Rink amide)	–	–	–	–	significantly decreased; also recorded: significantly reduced	significantly decreased; also recorded: significantly reduced
